In publication PMC7926627, “Fine-Tuning the Biological Profile of Multitarget Mitochondriotropic Antioxidants for Neurodegenerative Diseases” (Antioxidants, 2021):

How the values were obtained:
hMAO-B = molecular target: T1, hMAO-B (Homo sapiens, UniProt P27338); assay: biochemical; design: purchased Sigma Aldrich; host or cells: insect cells (BTI-TN-5B1-4), baculovirus
T1 sequence (P27338 1-520): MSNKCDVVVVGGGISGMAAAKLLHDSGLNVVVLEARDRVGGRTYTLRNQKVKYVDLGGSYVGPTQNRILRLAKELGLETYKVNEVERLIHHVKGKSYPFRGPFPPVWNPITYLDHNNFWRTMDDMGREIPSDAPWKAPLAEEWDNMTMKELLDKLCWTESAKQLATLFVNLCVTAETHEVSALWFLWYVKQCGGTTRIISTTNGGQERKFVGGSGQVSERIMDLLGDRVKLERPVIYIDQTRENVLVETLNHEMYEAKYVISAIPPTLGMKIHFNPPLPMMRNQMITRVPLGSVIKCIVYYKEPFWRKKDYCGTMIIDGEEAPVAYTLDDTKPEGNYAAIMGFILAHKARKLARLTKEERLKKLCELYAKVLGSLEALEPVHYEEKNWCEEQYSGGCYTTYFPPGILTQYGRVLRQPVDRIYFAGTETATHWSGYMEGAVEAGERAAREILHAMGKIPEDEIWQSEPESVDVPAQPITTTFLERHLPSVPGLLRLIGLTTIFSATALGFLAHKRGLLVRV
Experimental: The inhibitory activity of lipophilic TPP^+ cations on hMAO-A and hMAO-B was studied using an experimental protocol described elsewhere [29, 40]
Evaluation of human monoamine oxidase (hMAO) inhibitory activity The human monoamine oxidase (hMAO) inhibitory outline was assessed in microsomal MAO isoforms prepared from insect cells (BTI-TN-5B1-4) infected with recombinant baculovirus containing cDNA inserts for hMAO-A or hMAO-B an d by measuring the enzymatic conversion rates of kynuramine into 4-hydroxyquinoline. The appropriate amounts of hMAO-A and hMAO-B were adjusted to obtain, in our experimental conditions, the same maximum
All assays were performed in sodium phosphate buffer solution 50 mM pH 7.4.
The compounds under study and reference inhibitors were pre-incubated at 37 °C for 10
concentration: 2×Km) in 96-well microplates (BRANDplates, pureGradeTM, BRAND GMBH, Wertheim, Germany). Then, the reaction was started with the addition of hMAO-A or hMAO-B.
Initial velocities were determined spectrophotometrically in a microplate reader (BioTek Synergy HT from BioTek Instruments, Winooski, VT, USA) at 37 °C by measuring the formation of 4-
The initial velocities, obtained from the linear phase of product formation, were normalized and plotted against the respective inhibitor concentration. IC50 values were obtained from dose-response curves and were expressed as mean ± standard deviation. IC50 values were determined from at least three independent experiments, each performed in triplicate.

[1] = test system: differentiated SH-SY5Y cells; assay: Neutral red (NR) uptake assay (cytotoxicity); type: cell-based, human; conditions: 24 h; for effect on NR uptake: increasing concentrations up to 100 µM
Experimental: Controls were treated with culture media containing 0.1% DMSO. Cell viability was estimated using two different methods: resazurin reduction assay and NR uptake assay.
To avoid phenotypic changes, the cells used for all experiments were taken between 19th and 28th passages. Cells were differentiated as described previously by Fernandes et al. [6]. Briefly, SH-SY5Y cells were seeded onto 96-well plates at a density of 25,000 cells/cm2 in cell culture medium with trans-retinoic acid (RA) (final concentration of 10 µM) and incubated for 3 days at
The cell culture medium was then removed and replaced with medium supplemented with 12-O-tetradecanoylphorbol-13-acetate (TPA) (final concentration 80 nM), and cells were incubated for 3 days. Stock solutions of RA (10 mM) and TPA (80 µM) were prepared in DMSO.
The neutral red (NR) uptake assay is based on the ability of viable cells to incorporate the supravital dye NR and retain it inside the lysosomes [11]. NR uptake assay was performed as previously described by Fernandes et al. [12] Briefly, after the 24 h incubation periods with the test compounds, the cell culture medium was removed and NR solution (50 mg/mL) in fresh cell culture medium was added. Differentiated SH-SY5Y cells and Caco-2 cells were incubated for 2
culture medium was removed and replaced by ethanol absolute/distilled water (1:1) with 5 % acetic acid to liberate the dye from the viable cells. The absorbance was measured at 540 nm in a
multiwell microplate reader (PowerWave XS from BioTek Instruments). The results were
expressed as the percentage of NR uptake relative to that of the control (non-treated) cells [NR
uptake (% of control)] ± standard error mean (SEM) of at least three independent experiments.
Stock solutions of the test compounds (10 µM) were prepared in DMSO and diluted in

[2] = Oxygen radical absorbance capacity (ORAC-FL) assay; conditions: for ROO• radical scavenging: ORAC-FL; for ORAC-FL Index: relative Trolox equivalent ORAC value
[3] = Differential pulse voltammetry (DPV); type: physicochemical; conditions: pH 7.4, glassy carbon electrode; for Ep (redox potential): first anodic peak
Experimental: DPV experiments were performed as described in literature (see supplementary information).
1.4. Electrochemical measurements
Voltammetric studies were carried out using an Autolab PGSTAT 12 potentiostat/galvanostat (Metrohm-Autolab, Netherlands) and one compartment glass electrochemical cell. The voltammetric data were acquired at room temperature using a three-electrode system: a glassy carbon working electrode (GCE) (d = 2 mm), a platinum wire counter electrode and an Ag/AgCl saturated KCl reference electrode (Metrohm, Switzerland). The working electrode was polished manually with an aqueous slurry of alumina powder (BDH Chemicals, VWR, USA) on a microcloth pad and rinsed with water before use. A Crison pH-meter with glass electrode was used for the pH measurements (Crison, Barcelona, Spain).
Differential pulse voltammetry (DPV) experiments were performed as described elsewhere. Test solutions were prepared directly in the electrochemical cell, by diluting ethanolic solutions of the compounds under study (10 mM, 100 μL) in the supporting electrolyte (10 mL) to obtain a final concentration of 100 μM. The scan rate used in differential pulse voltammetry (DPV) was 5 mV.s−1.
All reagents used were of analytical grade or of the highest grade available. Neutral red (NR) solution, resazurin, Dulbecco’s Modified Eagle’s Medium (DMEM) with 4.5 g/L glucose, retinoic acid, 12-O-tetradecanoylphorbol-13-acetate (TPA), 2’,7’-dichorofluorescein diacetate (DCFH-DA), Rhodamine 123 (RHO 123) and zosuquidar (ZOS) were obtained from Sigma Aldrich. Reagents used in cell culture such as heat-inactivated fetal bovine serum (FBS), antibiotic (10,000 U/mL penicillin, 10,000 μg/mL streptomycin), MEM Non-Essential Amino Acids solution (100×) (MEM NEAA), Hanks’ balanced salt solution (HBSS) with or without calcium and magnesium (HBSS(+/+) or HBSS (-/-), respectively) and 0.25% trypsin/1 mM ethylenediamine tetraacetic acid (EDTA) were purchased from Gibco Laboratories (Lenexa, KS, USA). Dimethylsulfoxide (DMSO), absolute ethanol, sodium bicarbonate and acetic acid were obtained from Merck (Darmstadt, Germany). Triton™ X-100 detergent solution was acquired from Thermo Fisher Scientific (Waltham, MA, USA).
Human neuroblastoma SH-SY5Y cells were routinely cultured into […] and maintained in DMEM with 4.5 g/L glucose, supplemented with 10 % heat-inactivated FBS (v/v), 1 % MEM NEAA (v/v) and 1% penicillin/streptomycin (v/v). Cells were maintained at 37 °C in a humidified, 5% CO2−95% air atmosphere, and the cell culture medium was changed every 2-3

O=C(/C=C/C=C/c1ccc2c(c1)OCO2)NCCCC[P+](c1ccccc1)(c1ccccc1)c1ccccc1.[Br-] [Compound 2, (4-((2E,4E)-5-(Benzo[d][1,3]dioxol-5-yl)penta-2,4-dienamido)butyl)triphenylphosphonium bromide]
IC50 (hMAO-B): 12.4 ± 1.9 µM | SI (3): hMAO-B selectivity index = IC50 (hMAO-A)/IC50 (hMAO-B) (hMAO-B): 0.07 | effect on NR uptake [1]: remained constant | ROO• radical scavenging [2]: unable to scavenge ROO• radicals | Ep (redox potential), second overlapped anodic peak [3]: 1070 mV | Ep (redox potential) [3]: 942 mV

O=C(/C=C/C=C/c1ccc2c(c1)OCO2)NCCCCCC[P+](c1ccccc1)(c1ccccc1)c1ccccc1.[Br-] [Compound 3, (6-((2E,4E)-5-(Benzo[d][1,3]dioxol-5-yl)penta-2,4-dienamido)hexyl)triphenylphosphonium bromide]
IC50 (hMAO-B): 4.64 ± 0.29 µM | SI (3): hMAO-B selectivity index = IC50 (hMAO-A)/IC50 (hMAO-B) (hMAO-B): 0.26 | lysosomal toxicity (NR uptake) ([1]; at concentrations above 12.5 µM): significant lysosomal toxicity | ROO• radical scavenging [2]: unable to scavenge ROO• radicals | Ep (redox potential), second overlapped anodic peak [3]: 1083 mV | Ep (redox potential) [3]: 931 mV

O=C(/C=C/C=C/c1ccc(O)c(O)c1)NCCCC[P+](c1ccccc1)(c1ccccc1)c1ccccc1.[Br-] [Compound 4, (4-((2E,4E)-5-(3,4-Dihydroxyphenyl)penta-2,4-dienamido)butyl)triphenylphosphonium bromide]
IC50 (hMAO-B): 13.5 ± 1.1 µM | SI (3): hMAO-B selectivity index = IC50 (hMAO-A)/IC50 (hMAO-B) (hMAO-B): 0.38 | effect on NR uptake [1]: remained constant | ORAC-FL Index [2]: 3.3 ± 0.1 | Ep (redox potential) [3]: 125 mV

O=C(/C=C/C=C/c1ccc(O)c(O)c1)NCCCCCC[P+](c1ccccc1)(c1ccccc1)c1ccccc1.[Br-] [Compound 5, (6-((2E,4E)-5-(3,4-Dihydroxyphenyl)penta-2,4-dienamido)hexyl)triphenylphosphonium bromide]
IC50 (hMAO-B): 10.9 ± 0.7 µM | SI (3): hMAO-B selectivity index = IC50 (hMAO-A)/IC50 (hMAO-B) (hMAO-B): 0.20 | effect on NR uptake [1]: remained constant | ORAC-FL Index [2]: 3.1 ± 0.3 | Ep (redox potential) [3]: 144 mV
